Reference: patent EP4703359A1 (Shanghai Simr Biotechnology Co., Ltd., priority 2023, dated 2024)
pKi: −log10 of the molar value.

Legend:
α2-GABAA receptor [1] = target: T1, α2-GABAA receptor (Homo sapiens, UniProt P18507+P47869); test: Whole-cell patch-clamp electrophysiology, positive allosteric modulatory activity in α2-GABAAR-HEK293 cells; format: cell-based; conditions: compound 100 nM; GABA 0.10 to 0.11 µM (approximately EC7-8); normalized to reference compound CVL-865 (= 100%); read-out: α2-GABAAR Positive allosteric modulatory activity
T1 construct: expressed in transfected cells
Outline: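 HEK293 cells stably co-expressing α2β3γ2 GABAA receptor, whole-cell patch clamp at -60 mV. Compounds at 100 nM final applied with GABA 0.10–0.11 µM (~EC7-8) after GABA-only current stabilized. […]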

α2-GABAA receptor [2] = target: T1, α2-GABAA receptor; test: Radioactive ligand (3H-flunitrazepam) competitive binding assay, BZD site of membrane proteins of α2-GABAAR-HEK293 cells; conditions: competition with 1 nM 3H-flunitrazepam; HEK293 membranes expressing α2, β3, γ2 subunits; Ki calculated from IC50; read-out: α2 Ki

Emax at 0.1 µM (α2-GABAA receptor [1]) [%] | pKi (α2-GABAA receptor [2]) | Compound
89 | 7.56 | CCCNC(=O)c1nc2c(-c3cc(F)cc(C#N)c3)cccn2c1N [Example 55, 3-Amino-8-(3-cyano-5-fluorophenyl)-N-propylimidazo[1,2-a]pyridine-2-carboxamide]
74 | 7.50 | CCCNC(=O)c1nc2c(-c3c(F)ccc(C)c3OC)cccn2c1N [Example 78, 3-Amino-8-(6-fluoro-2-methoxy-3-methylphenyl)-N-propylimidazo[1,2-a]pyridine-2-carboxamide]
91 | 7.40 | CCCNC(=O)c1nc2c(-c3ccccc3OC)cccn2c1N [Example 61, 3-Amino-8-(2-methoxyphenyl)-N-propylimidazo[1,2-a]pyridine-2-carboxamide]
70 | 7.51 | CCCNC(=O)c1nc2c(-c3cc(OC)ccc3OC)cccn2c1N [Example 69, 3-Amino-8-(2,5-dimethoxyphenyl)-N-propylimidazo[1,2-a]pyridine-2-carboxamide]
50 | 7.73 | CCCNC(=O)c1nc2c(-c3cccc(F)c3)cccn2c1N [Example 46, 3-Amino-8-(3-fluorophenyl)-N-propylimidazo[1,2-a]pyridine-2-carboxamide]
93 | 8.47 | CCCNC(=O)c1nc2c(-c3cccc(C)c3F)cccn2c1N [Example 64, 3-Amino-8-(2-fluoro-3-methylphenyl)-N-propylimidazo[1,2-a]pyridine-2-carboxamide]
92 | 7.29 | CCCNC(=O)c1nc2c(-c3cc(C4CC4)ccc3OC)cccn2c1N [Example 68, 3-Amino-8-(5-cyclopropyl-2-methoxyphenyl)-N-propylimidazo[1,2-a]pyridine-2-carboxamide]
71 | 7.40 | CCCNC(=O)c1nc2c(-c3c(F)ccc(F)c3OC)cccn2c1N [Example 79, 3-Amino-8-(3,6-difluoro-2-methoxyphenyl)-N-propylimidazo[1,2-a]pyridine-2-carboxamide]
91 | 7.54 | COc1cccc(F)c1-c1cccn2c(N)c(C(=O)NCCC(F)(F)F)nc12 [Example 25, 3-Amino-8-(2-fluoro-6-methoxyphenyl)-N-(3,3,3-trifluoropropyl)imidazo[1,2-a]pyridine-2-carboxamide]
107 | 8.35 | CCCNC(=O)c1nc2c(-c3c(F)cccc3OC)c(C#N)ccn2c1N [Example 148, 3-Amino-7-cyano-8-(2-fluoro-6-methoxyphenyl)-N-propylimidazo[1,2-a]pyridine-2-carboxamide]
104 | 8.40 | CCCNC(=O)c1nc2c(-c3cc(C)ccc3F)cccn2c1N [Example 50, 3-Amino-8-(2-fluoro-5-methylphenyl)-N-propylimidazo[1,2-a]pyridine-2-carboxamide]
97 | 7.75 | CCCCNC(=O)c1nc2c(-c3c(F)cccc3OC)cccn2c1N [Example 26, 3-Amino-8-(2-fluoro-6-methoxyphenyl)-N-butylimidazo[1,2-a]pyridine-2-carboxamide]
71 | 8.30 | CCCNC(=O)c1nc2c(-c3cc4c(cc3OC)N(C)C(=O)CO4)c(F)ccn2c1N [Example 123, 3-Amino-7-fluoro-8-(6-methoxy-4-methyl-3-oxo-3,4-dihydro-2H-benzo[b][1,4]oxazin-7-yl)-N-propylimidazo[1,2-a]pyridine-2-carboxamide]
93 | 7.65 | CCCNC(=O)c1nc2c(-c3cccnc3OC)cccn2c1N [Example 82, 3-Amino-8-(2-methoxypyridin-3-yl)-N-propylimidazo[1,2-a]pyridine-2-carboxamide]
95 | 7.42 | CCCNC(=O)c1nc2c(-c3ccc(F)c(C#N)c3)cccn2c1N [Example 56, 3-Amino-8-(3-cyano-4-fluorophenyl)-N-propylimidazo[1,2-a]pyridine-2-carboxamide]
77 | 7.95 | [2H]C([2H])([2H])Oc1cccc(F)c1-c1cccn2c(N)c(C(=O)NCCC)nc12 [Example 138, 3-Amino-8-(2-fluoro-6-(methoxy-d3)phenyl)-N-propylimidazo[1,2-a]pyridine-2-carboxamide]
57 | 7.62 | COc1cccc(F)c1-c1cccn2c(N)c(C(=O)NCC3CC3)nc12 [Example 6, 3-Amino-N-(cyclopropylmethyl)-8-(2-fluoro-6-methoxyphenyl)imidazo[1,2-a]pyridine-2-carboxamide]
93 | 7.57 | CCCNC(=O)c1nc2c(-c3cc4c(cc3OC)N(C)C(=O)CO4)cccn2c1N [Example 91, 3-Amino-8-(6-methoxy-4-methyl-3-oxo-3,4-dihydro-2H-benzo[b][1,4]oxazin-7-yl)-N-propylimidazo[1,2-a]pyridine-2-carboxamide]
